“Also recorded” adds a separate entry of the source. Marks after values point to notes of the source that are not given here.
How the values were obtained:
[1] = test system: vomiting induced by cisplatin in ferrets; assay: Cisplatin-induced emesis in ferrets, single oral administration; format: in vivo, ferret; details: for Proportion of animal vomiting: 60 min before cisplatin i.v., 5 h observation
Protocol: Cisplatin-induced emesis in ferrets is largely considered as the most suitable animal model for the study of drug activity against chemotherapy-induced vomiting in man (Georges L. King. Animal models in the study of vomiting. Can. J. Physiol. Pharmacol. 68, 260-268, 1988).
Three compounds, dixyrazine dihydrochloride and its (R) and (S) enantiomers were tested for their activity against vomiting induced by cisplatin in ferrets following single oral administration.
The study involved 14 groups of 8 male ferrets weighing between 0.93 kg and 1.45 kg purchased from the company MARSHALL FARMS (NEW YORK, U.S.). Groups were defined as follows: […]
group 1: control group dosed with the vehicle of test substances (sterile water),
group 2: method-control group dosed with a method-control substance, granisetron ([…], RBI®), at a dose of 0.3 mg/kg,
group 3 to 6: group dosed with diyyrazine dihydrochloride at 4 increasing doses of 7.5, 15, 30 and 60 mg/kg,
group 7 to 10: group dosed with the (R) enantiomer of dixyrazine dihydrochloride at 4 increasing doses of 7.5, 15, 30 and 60 mg/kg,
group 11 to 14: group dosed with the (S) enantiomer of drazine dihydrochloride at 4 increasing doses of 7.5, 15, 30 and 60 mg/kg.
On the day prior to the test, animals were fasted and allowed access only to water.
On the morning of the day of the study, free access to food was allowed for 30 minutes. Subsequently, animals were again put on to a water-only fast for 30 minutes before administration of the three compounds, the vehicle or the method-control substance which were administrated orally in a volume of 5 ml/kg.
Cisplatin was administrated by the intravenous route at a dose of 115 mg/m^2 and in a volume of 115 ml/m^2 (i.e. approximately at 10 mg/kg), 60 minutes after treatment. […] Emesis was characterised by abdominal contractions, which were associated with expulsion or attempted expulsion of stomach contents.
The time to onset of emesis was noted. The number of episodes of vomiting and the number of abdominal retches associated with episodes of emesis were also noted.

[2] = test system: postoperative nausea and vomiting; details: prophylactic administration, analgesia with morphine; cited from earlier work
[3] = target: T1, 5-HT3 receptor (Homo sapiens, UniProt P46098); assay: Radioligand binding, 5-HT3 receptor; details: mean of duplicate, read-out: percent inhibition of control specific binding
T1 sequence (P46098 24-478): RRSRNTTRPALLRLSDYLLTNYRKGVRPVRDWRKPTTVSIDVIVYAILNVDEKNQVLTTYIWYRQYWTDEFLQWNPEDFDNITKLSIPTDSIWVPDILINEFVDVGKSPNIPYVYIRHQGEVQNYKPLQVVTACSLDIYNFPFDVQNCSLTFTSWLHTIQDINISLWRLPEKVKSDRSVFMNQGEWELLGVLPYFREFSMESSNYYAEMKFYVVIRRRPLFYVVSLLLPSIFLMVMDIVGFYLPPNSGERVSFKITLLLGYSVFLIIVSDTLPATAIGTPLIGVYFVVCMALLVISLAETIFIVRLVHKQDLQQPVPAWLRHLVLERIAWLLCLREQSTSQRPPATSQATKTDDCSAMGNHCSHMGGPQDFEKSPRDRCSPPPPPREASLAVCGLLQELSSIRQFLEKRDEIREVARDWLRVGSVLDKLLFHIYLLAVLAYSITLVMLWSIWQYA

[4] = target: T2, 5-HT2 serotonergic receptor (Rattus norvegicus, UniProt P14842); assay: Radioligand binding, 5-HT2 receptor (rat cerebral cortex)
T2 construct: the rat cerebral cortex (5-HT2 receptor); from tissue; host or cells: rat cerebral cortex
Protocol: (§1) The test substances, biological materials and experimental protocols used in the study are described in Moguilevsky N. et al. (1994) Eur. J. […] List S. J. (1981) Proc. Natl. Acad. Sci.78:2620-2624; MacKenzie R. G. et al. (1994) Eur. J. Pharmacol. 266:79-85; Van Tol et al., (1992) Nature, 358:149-152. […] Filtermat A, Walac), then washed with cold buffer using a filtration unit ‘Cell Harvester’ (Brandel, Packard or Tomtec). The bound radioactivity is measured using a scintillation liquid (Formula 989 or Microscint 0, Packard) or solid (Meltilex B/HS, Wallac), and a scintillation counter (LS 6000, Beckman; Topcount, Packard; Betaplate, Wallac). […] Each experiment was performed in duplicate (n=2). In parallel, a positive control (concentration of reference substance causing 50% inhibition of radioligand specific binding) is tested to validate the assay. For competition experiments, membranes are incubated in the buffer containing the radioligand and increasing concentrations of unlabeled test substances. Each binding assay is validated with a reference compound tested in parallel. […] where BO and BI represent the total binding in the absence and presence of the unlabelled drug (in dpm/assay) and NSB is the amount of non specific binding (in dpm/assay). Analysis of raw data and pIC50 calculation is performed by computerized non-linear curve fitting methods using a set of equations describing competitive interactions between labelled and unlabeled ligands which obey the law of mass action. IC50 represents the concentration of the test substance inhibiting 50% of the specific binding of the radioligand. It is determined in competitive binding experiments by measuring the binding of a single concentration of a radioactive ligand at equilibrium with various concentrations of the unlabeled test substance. pIC50=−log IC50

[5] = target: human H1 histaminic receptor (Homo sapiens, UniProt P35367); assay: Radioligand binding, human H1 receptor (CHO cell culture)
Protocol: as §1

[6] = target: D2 dopaminergic receptor (Rattus norvegicus, UniProt P61169); assay: Radioligand binding, D2 receptor (rat striatum membranes)
Protocol: as §1

[7] = highest dose of 60 mg/kg p.o., 60 mg/kg

human H1 histaminic receptor, sequence (P35367 whole entry): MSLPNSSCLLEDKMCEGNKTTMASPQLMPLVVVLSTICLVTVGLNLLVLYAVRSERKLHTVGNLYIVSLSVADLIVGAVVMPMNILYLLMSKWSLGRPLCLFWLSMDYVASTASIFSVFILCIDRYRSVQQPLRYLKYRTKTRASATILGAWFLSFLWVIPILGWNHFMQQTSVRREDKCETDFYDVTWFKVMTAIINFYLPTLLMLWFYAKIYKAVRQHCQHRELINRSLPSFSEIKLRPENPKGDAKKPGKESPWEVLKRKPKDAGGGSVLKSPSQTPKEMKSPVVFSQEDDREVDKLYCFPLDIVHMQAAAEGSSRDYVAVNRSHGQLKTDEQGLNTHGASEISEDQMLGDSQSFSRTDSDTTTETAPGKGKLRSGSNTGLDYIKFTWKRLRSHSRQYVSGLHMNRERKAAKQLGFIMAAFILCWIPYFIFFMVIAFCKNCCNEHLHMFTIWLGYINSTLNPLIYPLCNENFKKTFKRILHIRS
D2 dopaminergic receptor, sequence (P61169 1-415 isoform P61169-2): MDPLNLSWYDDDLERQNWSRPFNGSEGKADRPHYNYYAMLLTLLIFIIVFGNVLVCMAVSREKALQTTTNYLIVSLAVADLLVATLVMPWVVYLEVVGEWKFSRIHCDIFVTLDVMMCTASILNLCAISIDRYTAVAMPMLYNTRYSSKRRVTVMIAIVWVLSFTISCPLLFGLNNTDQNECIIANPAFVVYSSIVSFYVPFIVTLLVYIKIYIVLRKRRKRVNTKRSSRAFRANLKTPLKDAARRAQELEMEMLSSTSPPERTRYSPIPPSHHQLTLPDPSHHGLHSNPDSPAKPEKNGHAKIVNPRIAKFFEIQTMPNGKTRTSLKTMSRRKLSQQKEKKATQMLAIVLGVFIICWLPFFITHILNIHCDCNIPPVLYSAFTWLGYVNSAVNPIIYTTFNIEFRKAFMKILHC
T2 sequence (P14842 whole entry): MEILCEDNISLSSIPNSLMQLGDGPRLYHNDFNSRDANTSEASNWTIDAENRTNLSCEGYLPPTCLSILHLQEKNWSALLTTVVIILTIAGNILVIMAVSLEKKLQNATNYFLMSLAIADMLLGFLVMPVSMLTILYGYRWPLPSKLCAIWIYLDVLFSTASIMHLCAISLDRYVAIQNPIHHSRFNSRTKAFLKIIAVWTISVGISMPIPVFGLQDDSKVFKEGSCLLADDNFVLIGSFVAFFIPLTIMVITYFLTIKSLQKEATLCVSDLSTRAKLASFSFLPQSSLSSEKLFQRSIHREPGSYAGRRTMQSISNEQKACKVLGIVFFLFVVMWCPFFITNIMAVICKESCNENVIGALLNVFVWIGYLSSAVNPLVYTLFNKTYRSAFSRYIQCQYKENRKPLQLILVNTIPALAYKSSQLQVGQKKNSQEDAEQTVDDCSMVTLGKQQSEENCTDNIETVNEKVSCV

## CC(CN1CCN(CCOCCO)CC1)CN1c2ccccc2Sc2ccccc21 (racemic) [Dixyrazine, 2-(2-(4-(2-methyl-3-(10H-phenothiazin-10-yl)propyl)-1-piperazinyl)ethoxy)ethanol, reference compound]
[1]; 7.5 mg/kg p.o.
  Time to onset of emesis: 90 min
  Proportion of animal vomiting: 8/8
[1]; 15 mg/kg p.o.
  Time to onset of emesis: 76 min
  Proportion of animal vomiting: 5/8
[1]; 30 mg/kg p.o.
  Time to onset of emesis: 73 min
  Proportion of animal vomiting: 7/8
[1]; 60 mg/kg p.o.
  Time to onset of emesis: 81 min
  suppression of vomiting, number of animals: 5 animals out of 8
  Proportion of animal vomiting: 3/8*
[1]; [7]
  antiemetic effect (in words): induced an antiemetic effect
  effect on time to onset of emesis (in words): no effect; also recorded: did not alter this variable
[1]; highest dose of 60 mg/kg p.o., listed as dixyrazine dihydrochloride, 60 mg/kg
  antiemetic effect (in words): significantly reduce cisplatin-induced emesis
[2]
  incidence and severity of vomiting (in words): reduces the incidence and severity of vomiting
[3]; 5-HT3, 0.1 μM
  inhibition at 0.1 µM: < 10%
[3]; 5-HT3, 10 μM
  inhibition at 10 µM: 26%
[4]; 5-HT2, 10 μM, mean of duplicate, 10 µM
  percent inhibition of control specific binding: 102%
[4]; 5-HT2, competitive binding, read-out: Affinity pIC50 (-log IC50) (converted)
  IC50: 6.31 nM
[4]; read-out: percent inhibition of control specific binding, 5-HT2, 10 μM, mean of duplicate
  inhibition at 10 µM: > 90%
[5]; H1, 10 μM, mean of duplicate, 10 µM
  percent inhibition of control specific binding: 100%
[5]; H1, 10 μM, mean of duplicate, read-out: percent inhibition of control specific binding
  inhibition at 10 µM: > 90%
[5]; H1, competitive binding, read-out: Affinity pIC50 (-log IC50) (converted)
  IC50: 0.501 nM
[6]; D2, 10 μM, mean of duplicate, 10 µM
  percent inhibition of control specific binding: 94%
[6]; D2, 10 μM, mean of duplicate, read-out: percent inhibition of control specific binding
  inhibition at 10 µM: > 90%
[6]; D2, competitive binding, read-out: Affinity pIC50 (-log IC50) (converted)
  IC50: 5.01 nM

From US20040072825A1, “2-(2-(4-((2r)-2-methyl-3-(10h-phenothiazin-10-yl)propyl)-1-piperazinyl)-ethoxy) ethanol, process for the preparation thereof, pharmaceutical compositions containing said compound and therapeutic uses thereof” (priority 2000, published 2004)
